This assay concerns the target T1, Citrate synthase, peroxisomal [1-24] (Saccharomyces cerevisiae, UniProt P08679).
T1 construct: 1-24
As to the kind of experiment: CIT2-GFP expression modulators in yeast, SAR follow-up, flow cytometry, cherry pick 3, dose response (AID 488825).

[1] abbreviates: inactive by the depositor's call.

pEC50: −log10 of the molar value.

T1 sequence (P08679 1-24): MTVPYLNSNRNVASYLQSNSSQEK

In turn, `COc1ccccc1-c1cc(C(F)(F)F)nc(S(=O)(=O)CCCC(=O)O)n1` [4-[4-(2-methoxyphenyl)-6-(trifluoromethyl)pyrimidin-2-yl]sulfonylbutanoic acid] showed a negative-log EC50 (pEC50) under setting [1] of 4.24.

For `Cc1ccc(C(=O)Nc2nc(-c3ccccn3)cs2)o1` [5-methyl-N-[4-(2-pyridinyl)-2-thiazolyl]-2-furancarboxamide], the pEC50 under setting [1] is 2.43.

In turn, `Cc1nc(Nc2ccc(Br)cc2Br)c([N+](=O)[O-])c(=O)[nH]1` [6-[[2,4-bis(bromanyl)phenyl]amino]-2-methyl-5-nitro-1H-pyrimidin-4-one] showed a pEC50 of 4.13.

Turning to `O=C(O)c1ccc2cccc(O)c2n1` [8-oxidanylquinoline-2-carboxylic acid], under setting [1], the negative logarithm of the EC50 (pEC50) was 3.52.

`Oc1c(Cl)cc(Cl)c2cccnc12` [AS-229]: under setting [1], the pEC50 was 1.70.

Regarding `CCC(C)Nc1nc(N)c([N+](=O)[O-])c(Nc2ccccc2OC)n1` (stereo unspecified) [SMR000434817], under setting [1], the pEC50 was 3.89.

The values are drawn from BindingDB's records for doi:10.7270/Q2QN6575 (Nmmlsc, 2011).
